The source made the active and inactive calls. The rule behind the calls is not given here.
Key:
[1] = system: THP1-Xblue; assay: Immunostimulatory activity in human THP1-Xblue cells assessed as increase in IL-6 release at 0.1 to 10 uM incubated for 16 to 18 hrs by ELISA; type: functional, cell-based; conditions: dose 0.1-10 µM, time 16-18 hrs
[2] = target: Transcription factor p65 (Homo sapiens) (UniProt Q04206); assay: Induction of NFkappaB p65 nuclear translocation in human THP1-Xblue cells assessed as percentage of positive nuclei at 10 uM measured after 90 mins by Hoechst 33342 staining based immunofluorescence analysis relative to control (reference value: 0%); type: cell-based
[3] = target: Transcription factor p65 (Homo sapiens) (UniProt Q04206); assay: Induction of NFkappaB p65 nuclear translocation in human THP1-Xblue cells assessed as percentage of positive nuclei at 10 uM measured after 120 mins by Hoechst 33342 staining based immunofluorescence analysis (reference value: 0%); type: cell-based
[4] = system: Mus musculus; assay: Adjuvant activity in OVA-immunized C57BL/6J mouse model assessed as increase in IgG levels at 10 ug, sc administered on day 0 and as booster dose on day 21 and measured after 42 days by ELISA; type: functional, organism-based; conditions: dose 10.0 µg, time 42.0 day
[5] = system: Mus musculus; assay: Adjuvant activity in OVA-immunized C57BL/6J mouse model assessed as increase in IgG1 levels at 10 ug, sc administered on day 0 and as booster dose on day 21 and measured after 42 days by ELISA; type: functional, organism-based; conditions: dose 10.0 µg, time 42.0 day
[6] = system: Mus musculus; assay: Adjuvant activity in OVA-immunized C57BL/6J mouse model assessed as increase in IgG2c levels at 10 ug, sc administered on day 0 and as booster dose on day 21 and measured after 42 days by ELISA; type: functional, organism-based; conditions: dose 10.0 µg, time 42.0 day
[7] = system: Mus musculus; assay: Adjuvant activity in OVA-immunized C57BL/6J mouse model assessed as increase in IgG2b levels at 10 ug, sc administered on day 0 and as booster dose on day 21 and measured after 42 days by ELISA; type: functional, organism-based; conditions: dose 10.0 µg, time 42.0 day
[8] = system: Oryctolagus cuniculus; assay: Adjuvant activity in Enterococcus faecium PpiC-immunized New Zealand rabbit model assessed as production of PpiC specific antibody in sera at 70.2 ug administered on day 0, 14 ug on day 7 and 14 and measured after 28 days by ELISA; type: functional, organism-based; conditions: time 28.0 day
[9] = system: Oryctolagus cuniculus; assay: Adjuvant activity in Enterococcus faecium PpiC-immunized New Zealand rabbit model assessed as production of PpiC specific antibody in sera at 1:50 dilutions at 70.2 ug administered on day 0, 14 ug on day 7 and 14 and measured after 28 days by absorbance based analysis; type: functional, organism-based; conditions: time 28.0 day
[10] = system: Oryctolagus cuniculus; assay: Adjuvant activity in Enterococcus faecium PpiC-immunized New Zealand rabbit model assessed as production of PpiC specific antibody in sera at 1:100 dilutions at 70.2 ug administered on day 0, 14 ug on day 7 and 14 and measured after 28 days by absorbance based analysis; type: functional, organism-based; conditions: time 28.0 day
[11] = system: Oryctolagus cuniculus; assay: Adjuvant activity in Enterococcus faecium PpiC-immunized New Zealand rabbit model assessed as production of PpiC specific antibody in sera at 1:25600 dilutions at 70.2 ug administered on day 0, 14 ug on day 7 and 14 and measured after 28 days absorbance based analysis; type: functional, organism-based; conditions: time 28.0 day
[12] = system: Oryctolagus cuniculus; assay: Adjuvant activity in Enterococcus faecium PpiC-immunized New Zealand rabbit model assessed as production of PpiC specific antibody in terminal bleed sera at 1:1600 dilutions at 70.2 ug administered on day 0, 14 ug on day 7 and 14 and measured after 28 days by ELISA; type: functional, organism-based; conditions: time 28.0 day
[13] = system: Oryctolagus cuniculus; assay: Adjuvant activity in Enterococcus faecium PpiC-immunized New Zealand rabbit model assessed as antibody production by measuring increase in vancomycin resistant Enterococcus faecium 11236/1 specific antibodies at 70.2 ug administered on day 0, 14 ug on day 7 and 14 and measured after 28 days by Whole-bacterial cell ELISA; type: functional, organism-based; conditions: time 28.0 day
[14] = target: Toll-like receptor 4 (Homo sapiens) (UniProt O00206); assay: Agonist activity at human TLR4 in HEK-Blue hTLR4 cells assessed as increase in SEAP level incubated for 16 to 18 hrs by SEAP reporter gene based Quanti-Blue assay; type: cell-based; conditions: filed as agonist, dose 0.1-25 µM, time 16-18 hrs
[15] = target: Toll-like receptor 2 (Homo sapiens) (UniProt O60603); assay: Agonist activity at human TLR2 in HEK-Blue hTLR2 cells assessed as increase in SEAP level at 0.1 to 25 uM incubated for 16 to 18 hrs by SEAP reporter gene based Quanti-Blue assay; type: cell-based; conditions: dose 0.1-25 µM, time 16-18 hrs
[16] = system: THP1-Xblue; assay: Immunostimulatory activity in human THP1-Xblue cells assessed as increase in TNF-alpha release incubated for 16 to 18 hrs by ELISA; type: functional, cell-based; conditions: dose 0.1-10 µM, time 16-18 hrs
[17] = system: THP1-Xblue; assay: Immunostimulatory activity in human THP1-Xblue cells assessed as increase in IL-1beta release incubated for 16 to 18 hrs by ELISA; type: functional, cell-based; conditions: dose 0.1-10 µM, time 16-18 hrs
[18] = system: THP1-Xblue; assay: Immunostimulatory activity in human THP1-Xblue cells assessed as increase in IL-6 release incubated for 16 to 18 hrs by ELISA; type: functional, cell-based; conditions: dose 0.1-10 µM, time 16-18 hrs
[19] = target: Toll-like receptor 4 (Homo sapiens) (UniProt O00206); assay: Agonist activity at TLR4 in human THP1-Xblue cells assessed as increase in SEAP level at 0.1 to 10 uM incubated for 16 to 18 hrs by SEAP reporter gene based Quanti-Blue assay; type: cell-based; conditions: filed as agonist, dose 0.1-10 µM, time 16-18 hrs
[20] = target: Toll-like receptor 4 (Homo sapiens) (UniProt O00206); assay: Agonist activity at TLR4 in human THP1-Xblue cells assessed as induction of IkappaBalpha degradation at 10 uM incubated for 15 mins by immunoblotting analysis; type: cell-based; conditions: filed as agonist
[21] = target: Toll-like receptor 4 (Homo sapiens) (UniProt O00206); assay: Agonist activity at TLR4 in human THP1-Xblue cells assessed as induction of p65 phosphorylation at 10 uM incubated for 120 to 240 mins by immunoblotting analysis; type: cell-based; conditions: filed as agonist, time 120-240 min
[22] = Cytotoxicity against human THP1-Xblue cells assessed as reduction in cell viability at 0.1 to 10 uM incubated for 16 to 18 hrs by MTT assay; type: toxicity, cell-based; conditions: dose lower 0.1 µM, time lower 16 hrs, dose upper 10 µM, time upper 18 hrs
[23] = system: THP1-Xblue; assay: Activation of TRAM/TRIF pathway in human THP1-Xblue cells assessed as increase in IRF3 phosphorylation by Western blot analysis; type: cell-based
[24] = system: THP1-Xblue; assay: Activation of TRAM/TRIF pathway in human THP1-Xblue cells assessed as increase in STAT1 phosphorylation by Western blot analysis; type: cell-based
[25] = system: THP1-Xblue; assay: Activation of TRAM/TRIF pathway in human THP1-Xblue cells assessed as induction of phosphorylated IRF3 nuclear translocation by immunofluorescence analysis; type: cell-based
[26] = system: THP1-Xblue; assay: Induction of IFN-beta production in human THP1-Xblue cells; type: functional, cell-based
[27] = system: Mus musculus; assay: Effect on IgG2b levels in OVA-immunized C57BL/6J mouse model at 10 ug, sc administered on day 0 and as booster dose on day 21 and measured after 42 days by ELISA; type: functional, organism-based; conditions: dose 10.0 µg, time 42.0 day
[28] = Toxicity in OVA-immunized C57BL/6J mouse model assessed as change in body weight at 10 ug, SC administered on day 0 and measured after 4 days; conditions: in vivo, 96 h, dose 10 µg, time 4 day
[29] = Toxicity in OVA-immunized C57BL/6J mouse model assessed as change in ALT level at 10 ug, SC administered on day 0 and as booster dose on day 20 and measured after 40 days; conditions: in vivo, 960 h, dose 10 µg, time 40 day
[30] = Toxicity in OVA-immunized C57BL/6J mouse model assessed as change in AST level at 10 ug, SC administered on day 0 and as booster dose on day 20 and measured after 40 days; conditions: in vivo, 960 h, dose 10 µg, time 40 day
[31] = system: Oryctolagus cuniculus; assay: Adjuvant activity in Enterococcus faecium PpiC-immunized New Zealand rabbit model assessed as production of PpiC specific antibody in sera at 38.4 ug administered on day 0, 7.7 ug on day 7 and 14 and measured after 28 days by ELISA; type: functional, organism-based; conditions: time 28.0 day
[32] = system: Oryctolagus cuniculus; assay: Induction of antibody production in New Zealand rabbit at 38.4 ug administered on day 0, 7.7 ug on day 7 and 14 and measured after 28 days by ELISA; type: functional, organism-based; conditions: time 28.0 day
[33] = system: Oryctolagus cuniculus; assay: Adjuvant activity in Enterococcus faecium PpiC-immunized New Zealand rabbit model assessed as production of PpiC specific antibody in sera at 1:50 dilutions at 38.4 ug administered on day 0, 7.7 ug on day 7 and 14 and measured after 28 days by absorbance based analysis; type: functional, organism-based; conditions: time 28.0 day
[34] = system: Oryctolagus cuniculus; assay: Adjuvant activity in Enterococcus faecium PpiC-immunized New Zealand rabbit model assessed as production of PpiC specific antibody in sera at 1:100 dilutions at 38.4 ug administered on day 0, 7.7 ug on day 7 and 14 and measured after 28 days by absorbance based analysis; type: functional, organism-based; conditions: time 28.0 day
[35] = system: Oryctolagus cuniculus; assay: Adjuvant activity in Enterococcus faecium PpiC-immunized New Zealand rabbit model assessed as production of PpiC specific antibody in sera at 1:25600 dilutions at 38.4 ug administered on day 0, 7.7 ug on day 7 and 14 and measured after 28 days by absorbance based analysis; type: functional, organism-based; conditions: time 28.0 day
[36] = system: Oryctolagus cuniculus; assay: Adjuvant activity in Enterococcus faecium PpiC-immunized New Zealand rabbit model assessed as production of PpiC specific antibody in terminal bleed sera at 1:1600 dilutions at 38.4 ug administered on day 0, 7.7 ug on day 7 and 14 and measured after 28 days by ELISA; type: functional, organism-based; conditions: time 28.0 day
[37] = system: Oryctolagus cuniculus; assay: Adjuvant activity in Enterococcus faecium PpiC-immunized New Zealand rabbit model assessed as antibody production by measuring increase in vancomycin resistant Enterococcus faecium 11236/1 specific antibodies at 38.2 ug administered on day 0, 7.7 ug on day 7 and 14 and measured after 28 days by Whole-bacterial cell ELISA; type: functional, organism-based; conditions: time 28.0 day

Transcription factor p65 (Homo sapiens), sequence (Q04206 whole entry): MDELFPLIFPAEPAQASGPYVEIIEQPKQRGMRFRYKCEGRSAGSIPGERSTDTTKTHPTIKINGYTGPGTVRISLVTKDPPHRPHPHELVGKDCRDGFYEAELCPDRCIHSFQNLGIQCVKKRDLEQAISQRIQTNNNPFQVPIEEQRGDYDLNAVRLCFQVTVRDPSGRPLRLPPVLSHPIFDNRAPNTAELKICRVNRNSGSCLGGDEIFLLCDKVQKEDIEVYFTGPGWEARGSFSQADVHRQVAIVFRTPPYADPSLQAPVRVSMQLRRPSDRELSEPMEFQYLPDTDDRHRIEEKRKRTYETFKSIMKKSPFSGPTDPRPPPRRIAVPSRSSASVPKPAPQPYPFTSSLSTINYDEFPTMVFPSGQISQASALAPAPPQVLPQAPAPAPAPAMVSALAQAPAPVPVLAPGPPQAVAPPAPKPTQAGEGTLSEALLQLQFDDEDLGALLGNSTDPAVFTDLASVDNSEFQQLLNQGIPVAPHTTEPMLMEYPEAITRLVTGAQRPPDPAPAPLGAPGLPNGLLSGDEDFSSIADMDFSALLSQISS
Toll-like receptor 4 (Homo sapiens), sequence (O00206 whole entry): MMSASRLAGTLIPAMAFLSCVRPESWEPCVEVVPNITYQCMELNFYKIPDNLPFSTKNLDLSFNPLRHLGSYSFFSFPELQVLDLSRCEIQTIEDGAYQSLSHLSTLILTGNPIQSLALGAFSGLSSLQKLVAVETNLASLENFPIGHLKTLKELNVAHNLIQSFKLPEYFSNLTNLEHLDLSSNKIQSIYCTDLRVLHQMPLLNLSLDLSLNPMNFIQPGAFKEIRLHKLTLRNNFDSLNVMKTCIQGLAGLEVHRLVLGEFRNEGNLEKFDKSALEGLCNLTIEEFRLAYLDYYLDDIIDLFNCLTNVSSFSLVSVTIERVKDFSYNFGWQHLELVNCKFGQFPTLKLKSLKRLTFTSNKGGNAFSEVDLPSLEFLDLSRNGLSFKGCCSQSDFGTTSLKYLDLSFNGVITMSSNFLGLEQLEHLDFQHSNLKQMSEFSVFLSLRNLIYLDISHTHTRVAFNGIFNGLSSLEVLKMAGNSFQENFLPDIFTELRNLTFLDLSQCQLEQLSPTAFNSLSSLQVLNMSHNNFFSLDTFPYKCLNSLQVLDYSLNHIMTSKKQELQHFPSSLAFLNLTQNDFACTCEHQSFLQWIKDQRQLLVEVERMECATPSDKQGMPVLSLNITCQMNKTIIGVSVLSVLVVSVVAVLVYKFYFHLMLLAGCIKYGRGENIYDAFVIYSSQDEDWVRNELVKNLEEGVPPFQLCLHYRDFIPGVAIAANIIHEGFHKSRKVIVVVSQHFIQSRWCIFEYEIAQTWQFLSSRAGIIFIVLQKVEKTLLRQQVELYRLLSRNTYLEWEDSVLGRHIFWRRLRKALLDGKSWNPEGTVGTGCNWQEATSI
Toll-like receptor 2 (Homo sapiens), sequence (O60603 whole entry): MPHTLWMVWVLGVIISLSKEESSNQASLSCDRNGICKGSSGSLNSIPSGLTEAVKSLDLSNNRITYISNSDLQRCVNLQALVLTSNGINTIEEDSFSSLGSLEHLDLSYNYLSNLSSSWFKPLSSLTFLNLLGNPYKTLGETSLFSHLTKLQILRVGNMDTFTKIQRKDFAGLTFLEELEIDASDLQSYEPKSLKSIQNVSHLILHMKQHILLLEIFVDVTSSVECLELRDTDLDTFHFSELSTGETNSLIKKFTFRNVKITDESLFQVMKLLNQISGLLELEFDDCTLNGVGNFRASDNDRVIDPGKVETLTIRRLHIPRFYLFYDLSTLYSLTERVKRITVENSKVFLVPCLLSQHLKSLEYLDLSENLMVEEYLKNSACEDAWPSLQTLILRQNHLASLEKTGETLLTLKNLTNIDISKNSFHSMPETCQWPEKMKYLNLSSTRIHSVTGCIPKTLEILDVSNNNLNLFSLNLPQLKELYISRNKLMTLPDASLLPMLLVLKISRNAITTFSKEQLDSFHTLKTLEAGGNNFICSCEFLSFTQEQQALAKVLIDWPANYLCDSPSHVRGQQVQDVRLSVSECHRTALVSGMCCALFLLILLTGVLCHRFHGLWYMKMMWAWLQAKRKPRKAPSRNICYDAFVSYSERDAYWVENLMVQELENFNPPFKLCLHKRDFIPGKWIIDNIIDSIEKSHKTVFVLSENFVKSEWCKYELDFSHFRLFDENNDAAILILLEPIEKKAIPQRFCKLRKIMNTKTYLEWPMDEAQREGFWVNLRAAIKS

## CCCCCCCCCCCC(=O)N[C@H]1[C@H](OC(=O)CCCCCCCCCCC)O[C@H](CO)[C@@H](OP(=O)(O)O)[C@@H]1OC(=O)CCCCCCCCCCC
[1]
  Activity: inactive
[2]
  Activity: 1.3%
[3]
  Activity: 1.8%

## CCCCCCCCCCCCCC(=O)O[C@H](CCCCCCCCCCC)CC(=O)N[C@H]1[C@H](OC[C@H]2OC(O)[C@H](NC(=O)C[C@H](O)CCCCCCCCCCC)[C@@H](OC(=O)C[C@H](O)CCCCCCCCCCC)[C@@H]2O)O[C@H](CO)[C@@H](OP(=O)(O)O)[C@@H]1OC(=O)C[C@@H](CCCCCCCCCCC)OC(=O)CCCCCCCCCCCCC (some centres not stated)
[4]
  Activity: Active
[5]
  Activity: Active
[6]
  Activity: Active
[7]
  Activity: Active
[8]
  Activity: Active
[9]
  Activity: Active
[10]
  Activity: Active
[11]
  Activity: Active
[12]
  Activity: Active
[13]
  Activity: Active

## CCCCCCCCCCCC(=O)N[C@H]1[C@H](OC(=O)CCCCCCCCCCC)O[C@H](COC(=O)C(C)(CO)CO)[C@@H](OP(=O)([O-])[O-])[C@@H]1OC(=O)CCCCCCCCCCC.[Na+].[Na+]
[14]
  Activity: Active
[15]
  Activity: inactive
[16]
  Activity: Dose-Dependent Effect
[17]
  Activity: Dose-Dependent Effect
[18]
  Activity: Dose-Dependent Effect
[19]
  Activity: Active
[20]
  Activity: Active
[21]
  Activity: Active
[2]
  Activity: 15.3%
[3]
  Activity: 19%
[22]
  Activity: Non-Toxic
[23]
  Activity: inactive
[24]
  Activity: inactive
[25]
  Activity: inactive
[26]
  Activity: inactive
[4]
  Activity: Active
[5]
  Activity: Active
[6]
  Activity: Active
[27]
  Activity: inactive
[28]
  Activity: Non-Toxic
[29]
  Activity: Non-Toxic
[30]
  Activity: Non-Toxic
[31]
  Activity: Active
[32]
  Activity: inactive
[33]
  Activity: Active
[34]
  Activity: Active
[35]
  Activity: Active
[36]
  Activity: Active
[37]
  Activity: Active

— ChEMBL document CHEMBL5543117, “Novel TLR4-Activating Vaccine Adjuvant Enhances the Production of Enterococcus faecium-binding Antibodies” (J Med Chem, 2024)
